In US11413297B2, “Therapies for treating and preventing chronic rhinosinusitis” (Avanti Polar Lipids, LLC, priority 2017, dated 2022):
Entries after “also recorded” stand apart in the source; their conditions may differ.

What was measured:
Assay type in all cases: cell-based
MRSA = assay: Inhibition of growth of planktonic MRSA, OD600 (Example 10); details: in combination with gentamicin, compared to gentamicin alone; 6 h; phospholipid 256, 512, 1024 μg/ml
Description: (§1) We performed in vitro studies of the capacity of phospholipids together with antibiotics to inhibit the growth of planktonic bacteria. The tests were conducted as follows. Freshly grown MRSA was quantitated and placed in 96-well plates together with gentamicin alone, phospholipids plus gentamicin, or control solutions. Two different phospholipids (MAPCHO-10 and MAPCHO-12) were tested at three different phospholipid test concentrations (256 μg/ml, 512 μg/ml, and 1024 μg/ml). After 24 hours at 37 degrees C., media was removed and fresh medium was added and the 96-well plates were incubated at 37 degrees C. for 6 hours. Bacterial density was then analyzed and measured at OD600.

[1] = system: S. aureus (NCTC 8325) biofilm formation; assay: Prevention of S. aureus (NCTC 8325) biofilm formation, crystal violet at 540 nm (Example 12); details: 24 hours; for prevention of biofilm formation by S. aureus (NCTC 8325): agent alone (antibiotic alone at low concentrations, or phospholipid alone)
Description: (§2) We also performed in vitro tests of the capacity of phospholipids together with antibiotics to prevent formation of biofilms. Freshly grown S. aureus (NCTC 8325) were quantitated and placed in 96-well plates together with phospholipids plus gentamicin and tobramycin (antibiotics) or antibiotics alone. After 24 hours at 37 degrees C., the fluids were removed and the wells stained with crystal violet, and then the density of crystal violet in the wells was quantitated by absorption of light at 540 nm.

S. aureus = assay: Inhibition of growth of planktonic S. aureus, OD600 (Example 8); details: in combination with gentamicin, compared to gentamicin alone; 6 h; phospholipid 256, 512, 1024 μg/ml
Description: as §1, with “S. aureus” for “MRSA”

[2] = system: preformed S. aureus (ATCC BAA-1720) biofilms; assay: Disruption of preformed S. aureus biofilm, crystal violet staining (Example 1)
Description: We performed in vitro studies of the capacity of phospholipids together with antibiotics to disrupt preformed bacterial biofilms. The tests were conducted as follows. Biofilm formation was obtained by culturing (1) S. aureus in tryptic soy broth media supplemented with 5% glucose; and (2) P. aeruginosa in cation-adjusted Mueller Hinton Broth after incubation at 37 degrees C. for 24 hours in 96 well plates. The medium was then removed and replaced by treatment solutions of antibiotics, antibiotics+phospholipids, phospholipids alone, or control solutions. Phospholipid concentration used in the assays was 512 μg/ml although in some studies, was […]. After 24 hours at 37 degrees C., media was removed and fresh medium was added and the 96-well plates incubated at 37 degrees C. for 24 hours. Media were then removed and biofilm at the base of the wells was stained with crystal violet and quantitated.

[3] = system: S. aureus (ATCC BAA-1720) biofilm formation; assay: Prevention of S. aureus biofilm formation, crystal violet at 540 nm (Example 2); details: 24 hours
Description: as §2, with “and P. aeruginosa” for “(NCTC 8325)”, “(antibiotics), phospholipids alone, antibiotics alone” for “(antibiotics)”, “controls solution.” for “antibiotics alone.”

[4] = system: S. aureus biofilm formation; assay: Prevention of S. aureus biofilm formation at 6 h, crystal violet (Example 9); details: in combination with gentamicin, phospholipid 256, 512, 1024 μg/ml
Description: We performed in vitro tests of the capacity of phospholipids together with antibiotics to prevent formation of biofilms. Freshly grown S. aureus was quantitated and placed in 96-well plates together with gentamicin alone, phospholipids plus gentamicin, or control solutions. Two different phospholipids ([…]-10 and […]-12) were tested at three different phospholipid test concentrations (256 μg/ml, 512 μg/ml, and 1024 μg/ml). After 6 hours at 37 degrees C., the fluids were removed and the wells stained with crystal violet, and then the density of crystal violet in the wells was quantitated.

P. aeruginosa [5] = assay: Inhibition of growth of planktonic P. aeruginosa, OD600 (Example 4); details: in combination with gentamicin, compared to gentamicin alone
Description: We performed in vitro studies of the capacity of phospholipids together with antibiotics to inhibit the growth of planktonic bacteria. The tests were conducted as follows. Freshly grown P. aeruginosa was quantitated and placed in 96-well plates together with gentamicin alone, phospholipids plus gentamicin, or control solutions. Four different phospholipids (MAPCHO-10, MAPCHO-12, MAPCHO-14, and MAPCHO-16) were tested at two different phospholipid test concentrations (1024 μg/ml and 2048 μg/ml). After 24 hours at 37 degrees C., media was removed and fresh medium was added and the 96-well plates were incubated at 37 degrees C. for either 6 hours or 24 hours. Bacterial density was then analyzed and measured at OD600.

[6] = system: preformed P. aeruginosa biofilms; assay: Disruption of preformed P. aeruginosa biofilms, crystal violet (Example 3); details: for disruption of preformed P. aeruginosa biofilms: 6 h time point; for eradication of preformed P. aeruginosa biofilms: 24 h time point, FIGS. 5A-5C
Description: We performed in vitro studies of the capacity of phospholipids together with antibiotics to disrupt preformed bacterial biofilms. The tests were conducted as follows. Biofilm formation was obtained by culturing P. aeruginosa in cation-adjusted Mueller Hinton Broth after incubation at 37 degrees C. for 24 hours in 96 well plates. The medium was then removed and replaced by treatment solutions of gentamicin, phospholipids plus gentamicin, or control solutions. Either three or four different phospholipids (MAPCHO-10, MAPCHO-12, MAPCHO-14, and MAPCHO-16) were tested at three different phospholipid test concentrations (512 μg/ml, 1024 μg/ml, and 2048 μg/ml). After 24 hours at 37 degrees C., media was removed and fresh medium was added and the 96-well plates were incubated at 37 degrees C. for either 6 hours or 24 hours. Media were then removed and biofilm at the base of the wells was stained with crystal violet and quantitated.

MRSA biofilm formation = assay: Prevention of MRSA biofilm formation at 6 h, crystal violet (Example 11); details: in combination with gentamicin, phospholipid 512 μg/ml and 1024 μg/ml
Description: We performed in vitro tests of the capacity of phospholipids together with antibiotics to prevent formation of biofilms. Freshly grown MRSA was quantitated and placed in 96-well plates together with gentamicin alone, phospholipids plus gentamicin, or control solutions. Two different phospholipids (MAPCHO-10 and MAPCHO-12) were tested at three different phospholipid test concentrations (256 μg/ml, 512 μg/ml, and 1024 μg/ml). After 6 hours at 37 degrees C., the fluids were removed and the wells stained with crystal violet, and then the density of crystal violet in the wells was quantitated.

[7] = system: P. aeruginosa in preformed biofilm; assay: Bacterial density of P. aeruginosa in preformed biofilm, OD600 (Example 7); details: in combination with gentamicin; 6 h; phospholipid 512, 1024, 2048 μg/ml; FIGS. 10A-10D
Description: We performed in vitro studies of the capacity of phospholipids together with antibiotics to eradicate preformed bacterial biofilms. The tests were conducted as follows. Biofilm formation was obtained by culturing P. aeruginosa in cation-adjusted Mueller Hinton Broth after incubation at 37 degrees C. for 24 hours in 96 well plates. The medium was then removed and replaced by treatment solutions of gentamicin, phospholipids plus gentamicin, or control solutions. Four different phospholipids (MAPCHO-10, MAPCHO-12, MAPCHO-14, and MAPCHO-16) were tested at three different phospholipid test concentrations (512 μg/ml, 1024 μg/ml, and 2048 μg/ml). After 24 hours at 37 degrees C., media was removed and fresh medium was added and the 96-well plates were incubated at 37 degrees C. for 6 hours. Bacterial density was then analyzed and measured at OD600.

[8] = system: P. aeruginosa biofilm formation; assay: Prevention of P. aeruginosa biofilm formation, crystal violet (Example 5); details: 24 h
Description: We performed in vitro tests of the capacity of phospholipids together with antibiotics to prevent formation of biofilms. Freshly grown P. aeruginosa was quantitated and placed in 96-well plates together with gentamicin alone, phospholipids plus gentamicin, or control solutions. Four different phospholipids (MAPCHO-10, MAPCHO-12, MAPCHO-14, and MAPCHO-16) were tested at two different phospholipid test concentrations (1024 μg/ml and 2048 μg/ml). After 24 hours at 37 degrees C., the fluids were removed and the wells stained with crystal violet, and then the density of crystal violet in the wells was quantitated.

P. aeruginosa [9] = assay: Prevention of P. aeruginosa bacterial growth, OD600 after 24 h (Example 6); details: in combination with gentamicin, phospholipid 512, 1024, 2048 μg/ml, FIGS. 9A-9C
Description: We performed in vitro studies of the capacity of phospholipids together with antibiotics to prevent bacterial growth. Freshly grown P. aeruginosa was quantitated and placed in 96-well plates together with gentamicin alone, phospholipids plus gentamicin, or control solutions. Three different phospholipids (MAPCHO-12, MAPCHO-14, and MAPCHO-16) were tested at three different phospholipid test concentrations (512 μg/ml, 1024 μg/ml, and 2048 μg/ml). After 24 hours at 37 degrees C., bacterial density was then analyzed and measured at OD600.

[10] = agent alone (gentamicin alone or phospholipid alone)
[11] = agent alone (gentamicin alone at low concentrations, or phospholipid alone)
[12] = 6 h time point, phospholipid 1024 and 2048 μg/ml
[13] = in combination with gentamicin, phospholipid 512, 1024 and 2048 μg/ml, FIGS. 4B-4D
[14] = in combination with gentamicin, phospholipid 512, 1024 and 2048 μg/ml
[15] = in combination with gentamicin, phospholipid 1024 or 2048 μg/ml, FIGS. 8B, 8C

Compound | inhibition of MRSA growth (MRSA) | prevention of biofilm formation by S. aureus (NCTC 8325) [1] | inhibition of S. aureus growth (S. aureus) | disruption of preformed biofilm of S. aureus [2, 10] | prevention of biofilm formation by S. aureus [3, 11] | prevention of S. aureus biofilm formation compared to gentamicin alone [4] | inhibition of P. aeruginosa growth (P. aeruginosa [5]; [12]) | disruption of preformed P. aeruginosa biofilms [6, 13] | eradication of preformed P. aeruginosa biofilms [6, 14] | inhibition of P. aeruginosa bacterial growth in preformed biofilm relative to gentamicin alone [7] | prevention of P. aeruginosa biofilm formation [8, 15] | inhibition of P. aeruginosa bacterial growth relative to gentamicin alone (P. aeruginosa [9]) | further results
CCCCCCCCCCCCOP(=O)([O-])OCC[N+](C)(C)C [MAPCHO-12, N-dodecylphosphocholine] | strong inhibition | did not prevent biofilm formation | strong inhibition | did not disrupt the biofilm | did not prevent biofilm formation | more effective | moderate inhibition | disruption of P. aeruginosa biofilms occurs | nearly complete eradication | more effective | effective at preventing | – | effect on formation of biofilm by S. aureus (NCTC 8325) ([1]; 512 μg dose of phospholipid in combination with gentamicin, FIGS. 15, 16): positive effects; also recorded: able to prevent biofilm formation; effect on formation of biofilm by S. aureus (NCTC 8325) ([1]; 512 μg dose of phospholipid in combination with tobramycin, FIGS. 15, 17): positive effects; also recorded: able to prevent biofilm formation; disruption of preformed biofilm of S. aureus ([2]; phospholipid together with gentamicin, FIG. 2): disrupt preformed biofilm; sterilization of S. aureus on disruption of the biofilm ([2]; phospholipid/gentamicin combination): sterilized; prevention of biofilm formation by S. aureus ([3]; phospholipid combined with gentamicin at low concentrations, FIG. 3): did prevent biofilm formation; inhibition of P. aeruginosa growth (P. aeruginosa [5]; 24 h time point, highest phospholipid dose 2048 μg/ml): significant inhibition; prevention of MRSA biofilm formation compared to gentamicin alone (MRSA biofilm formation): tends to be more effective
gentamicin [reference compound] | – | did not prevent the formation of the biofilm | – | not successful | does not prevent the formation of the biofilm | – | – | – | – | – | – | – | disruption of preformed P. aeruginosa biofilms ([6]; gentamicin alone, FIG. 4A): did not induce biofilm disruption; prevention of P. aeruginosa biofilm formation ([8]; gentamicin alone, FIG. 8A): unable to prevent
CCCCCCCCCCCCCCOP(=O)([O-])OCC[N+](C)(C)C [MAPCHO-14, N-tetradecylphosphocholine] | – | – | – | – | – | – | moderate inhibition | disruption of P. aeruginosa biofilms occurs | nearly complete eradication | more effective | effective at preventing | more effective | inhibition of P. aeruginosa growth (P. aeruginosa [5]; 24 h time point, phospholipid 1024 and 2048 μg/ml): significant inhibition
CCCCCCCCCCOP(=O)([O-])OCC[N+](C)(C)C [MAPCHO-10, N-decylphosphocholine] | moderate inhibition | – | moderate inhibition | – | – | more effective | – | – | – | – | – | – | –
CCCCCCCCCCCCCCCCOP(=O)([O-])OCC[N+](C)(C)C [MAPCHO-16] | – | – | – | – | – | – | – | disruption of P. aeruginosa biofilms occurs | nearly complete eradication | more effective | effective at preventing | more effective | –
NC[C@H]1O[C@H](O[C@H]2[C@H](O)[C@@H](O[C@H]3O[C@H](CO)[C@@H](O)[C@H](N)[C@H]3O)[C@H](N)C[C@@H]2N)[C@H](N)C[C@@H]1O [tobramycin, reference compound] | – | did not prevent the formation of the biofilm | – | – | – | – | – | – | – | – | – | – | –
